Results reported in patent US8853227B2, “Methotrexate adjuvants to reduce toxicity and methods for using the same” (Tosk, Incorporated, priority 2008, dated 2014).
“Also recorded” adds a separate entry of the source.

Assays:
[1] = Mouse Study II (protection from loss of mucosal permeability, oral iodixanol in plasma); type: in vivo, C57BI/6 female mice; conditions: day 7
Method: C57BI/6 female mice (n=7) were treated intraperitoneal (ip) with 100 mg/kg MTX on days 2, 3 and 4 with and without 60 mg/kg TK-112690 (ip) three hours before, and after, MTX injections. On day 7, mucosal barrier injury was estimated by measuring plasma concentrations of orally administered iodixanol determined by HPLC using UV detection (Boxplots with minimum and maximum values (black lines). Orally administered iodixanol is not absorbed absent an increase in mucosal permeability. Group 1=saline control, Group 2=MTX and Group 3=MTX+TK-112690.
The aim of this study was to evaluate the ability of a representative a 2,2′-anhydropyrimidine test article to mitigate MTX-induced loss of mucosal permeability. C57BI/6 female mice (n=7) were treated (ip) with 100 mg/kg MTX on days 2, 3 and 4 with and without 60 mg/kg TK-112690 (ip) three hours before, and after, MTX injections. On day 7, mucosal barrier injury was estimated by measuring plasma concentrations of orally administered iodixanol determined by HPLC using UV detection. Orally administered iodixanol is not absorbed absent an increase in mucosal permeability.

[2] = Mouse Study III (infection study, WBC counts); type: in vivo, C57BL/6 mice; conditions: Day 11
Method: C57BL/6 mice (n=10/dose group), treated i.p. 50 mg/kg MTX on Day 1, 2, 3, 4, 6 and 8 along with 60 mg/kg TK-112690 i.p. 3 hr±MTX followed by single daily doses TK-112690 on days not treated with MTX. On Day 11, the animals were sacrificed and hematology performed on the resulting blood. Group 1=saline control, Group 2=MTX control and Group 3=MTX+TK-112690.
For the study whose data are presented in FIG. 4, C57BL/6 mice (n=10/dose group) were treated i.p. with 50 mg/kg MTX on Day 1, 2, 3, 4, 6 and 8 along with 60 mg/kg TK-112690 i.p. 3 hr±MTX followed by single daily doses TK-112690 on days not treated with MTX. On Day 11, the animals were bled and hematology performed on the resulting blood samples. Following the hematology measurements, the animals were sacrificed.

[3] = tested on: AS283 cells; assay: Cell Culture Study II (MTX cytotoxicity, CellTiter-Glo); type: cell-based, human; conditions: 72 hours
Method: In this study, AS283 cells were grown in RPMI-1640 supplemented with L-glutamine dipeptide, sodium pyruvate, HEPES, and 10% FBS. AS283 cells were used to seed three 96-well plates with 10,000 cells/well in a total volume of 50 μL. Medium alone wells were seeded 100 μL medium. Plates were incubated overnight. The following day, 25 μL of the TK-112690 and MTX stock solutions were added to the appropriate wells. TK-112690 was added first, followed by MTX in all wells. 25 μL of vehicle was added to TK-112690 alone wells. 25 μL of vehicle and 25 μL medium were added to vehicle control wells, and 50 μL medium was added to cell control wells. Cell viability was measured using CellTiter-Glo and DOX (10 μM) was used as a reference standard. The plates were incubated at 37° C., 5% CO2 for 72 hours then removed from the incubator and placed on the bench at room temperature for 30 min. The plates were not stacked or shaken. […] Luminescence was recorded on TriLux. […]
AS283 cells were grown in RPMI-1640 supplemented with L-glutamine dipeptide, sodium pyruvate, HEPES, and 10% FBS. […] Cell viability was measured using CellTiter-Glo and DOX (10 μM) was used as a reference standard.
The plates were incubated at 37° C., 5% CO2 for 72 hours then removed from the incubator and placed on the bench at room temperature for 30 min. […] Luminescence was recorded on TriLux.

Compound | mucosal barrier injury (increased plasma iodixanol) ([1]; 100 mg/kg MTX ip on Days 2, 3 and 4) | systemic WBC level ([2]; 50 mg/kg MTX ip Day 1, 2, 3, 4, 6, 8, p<0.02 vs saline or MTX+TK-112690) | cytotoxicity to AS283 cancer cells ([3]; MTX 0.01-100 μM) | protection from MTX-induced mucosal barrier injury (plasma concentration of orally administered iodixanol) ([1]; 60 mg/kg ip 3 h before and after 100 mg/kg MTX, days 2, 3, 4, p<0.05) | protection from MTX-induced mucositis measured as prevention of WBC increase ([2]; 60 mg/kg ip 3 hr ± MTX 50 mg/kg) | effect of TK-112690 on MTX cytotoxicity (cell viability) ([3]; TK-112690 1, 10, 100 μM + MTX 0.01-100 μM)
CN(Cc1cnc2nc(N)nc(N)c2n1)c1ccc(C(=O)N[C@@H](CCC(=O)O)C(=O)O)cc1 [MTX, N-[4-[[(2,4-diamino-6-pteridinyl)methyl]methylamino]benzoyl]-L-glutamic acid, reference compound] | experienced mucosal barrier injury | increases systemic WBC | cytotoxic | – | – | –
Cc1cn2c(nc1=O)O[C@H]1[C@H](O)[C@@H](CO)O[C@H]12 [TK-112690, 2,2′-anhydro-5-methyluridine] | – | – | – | protected mice from MTX-induced mucosal barrier injury | protects from MTX-induced mucositis | did not diminish the cytotoxicity of MTX; also recorded: no statistical difference
